Data: patent US20240400515A1, “NPM1-DEPENDING LEUKEMIA AGENTS” (UNIVERSIDAD COMPLUTENSE DE MADRID, priority 2021, published 2024)

Assays:
OCI-AML3 (NPM1 C+) = assay: Viability assay (WST-1) in OCI-AML3 cell line; format: cell-based; conditions: Homo sapiens, OCI-AML-3, viability percentage relative to vehicle, 24 h
Experimental: (§1) Two different acute myeloid leukemia cell lines, OCI-AML3 (NPM1 C+) and MOLM13 (NPM1 C−) were obtained from the DSMZ cell repository (Braunschweig, Germany). Cell lines were expanded and cryogenically frozen upon acquisition to establish stocks in liquid nitrogen until use. Cultured cells were maintained at 37° C. in a humidified incubator in an atmosphere of 5% CO2 and passaged every 2-3 days. RPMI media (Gibco/Life Technologies; Grand Island, NY) supplemented with 10% fetal bovine serum (FBS) (Hyclone) and 1% penicillin/streptomycin was used.
(§2) The sensitivity of the compounds on OCI-AML3 (NPM1 C+) and MOLM13 (NPM1 C−) cell viability was assessed as an in-vitro acute myeloid leukemia (AML) model. Briefly, cells were seeded at a density of 2×10^4 cells/100 μL/well in 96-well plates. Cell lines were treated for 24 h with the test compound diluted in DMSO at the concentration of 5 μM or vehicle (DMSO). Then, 10 μL of WST-1 solution ((2-(4-iodophenyl)-3-(4-nitrophenyl)-5-(2,4-disulfophenyl)-2H-tetrazolium monosodium salt, Merck) were added and the cells were incubated for 4 h at 37° C. The absorbance was measured at 450 nm using an Asys UVM 340 microplate reader (Biochrom Ltd., Cambridge, UK). The background absorbance of blank wells containing only medium was subtracted from each test well. The data were reported as viability percentage relative to vehicle, obtained from two or three independent experiments performed in triplicate (Table 1).

MOLM13 (NPM1 C−) = assay: Viability assay (WST-1) in MOLM13 cell line; format: cell-based; conditions: Homo sapiens, MOLM-13, viability percentage relative to vehicle, 24 h
Experimental: as §1, §2

SMILES	viability at 5 µM (OCI-AML3 (NPM1 C+))	viability at 5 µM (MOLM13 (NPM1 C−))
N[C@@H]1[C@@H](c2ccccc2Cl)Cc2[nH]c3ccccc3c2[C@H]1CCNCC1CC1 [In, (2R,3S,4R)-2-(2-Chlorophenyl)-4-{2-[(cyclopropylmethyl)amino]ethyl}-2,3,4,9-tetrahydro-1H-carbazol-3-amine]	29 ± 1%	28 ± 4%
N[C@@H]1[C@@H](c2cccc(Cl)c2)Cc2[nH]c3ccccc3c2[C@H]1CCNCC1CC1 [Ih, (2R,3R,4R)-2-(3-Chlorophenyl)-4-{2-[(cyclopropylmethyl)amino]ethyl}-2,3,4,9-tetrahydro-1H-carbazol-3-amine]	25 ± 7%	28 ± 10%
CNCC[C@@H]1c2c([nH]c3ccccc23)C[C@H](c2ccc(OC)cc2)[C@H]1N [Iw, (2R,3R,4R)-2-(4-Methoxyphenyl)-4-[2-(methylamino)ethyl]-2,3,4,9-tetrahydro-1H-carbazol-3-amine]	27 ± 2%	40 ± 15%
CN[C@@H]1[C@@H](c2ccc(C)cc2)Cc2[nH]c3ccc(Cl)cc3c2[C@H]1CCNCC1CC1 [Iak, (2R,3R,4R)-6-Chloro-4-{2-[(cyclopropylmethyl)amino]ethyl}-N-methyl-2-(4-methylphenyl)-2,3,4,9-tetrahydro-1H-carbazol-3-amine]	1 ± 1%	7 ± 2%
CN[C@@H]1[C@@H](c2ccc(C)cc2)Cc2[nH]c3ccc(Cl)cc3c2[C@H]1CCNCC1CC(F)(F)C1 [Iac, (2R,3R,4R)-6-Chloro-4-(2-{[(3,3-difluorocyclobutyl)methyl]amino}ethyl)-N-methyl-2-(4-methylphenyl)-2,3,4,9-tetrahydro-1H-carbazol-3-amine]	6%	5 ± 1%
Cc1ccc([C@H]2Cc3[nH]c4ccc(Cl)cc4c3[C@@H](CCNCC3CC(F)(F)C3)[C@@H]2N)cc1 [Iab, (2R,3R,4R)-6-Chloro-4-(2-{[(3,3-difluorocyclobutyl)methyl]amino}ethyl)-2-(4-methylphenyl)-2,3,4,9-tetrahydro-1H-carbazol-3-amine]	17 ± 4%	14 ± 8%
Cc1ccc([C@H]2Cc3[nH]c4ccc(C)cc4c3[C@@H](CCNCC3CC3)[C@@H]2N)cc1 [Iai, (2R,3R,4R)-4-{2-[(Cyclopropylmethyl)amino]ethyl}-6-methyl-2-(4-methylphenyl)-2,3,4,9-tetrahydro-1H-carbazol-3-amine]	12 ± 2%	6 ± 2%
COc1ccc2[nH]c3c(c2c1)[C@@H](CCNCC1CC1)[C@H](N)[C@@H](c1ccc(C)cc1)C3 [Iaf, (2R,3R,4R)-4-{2-[(Cyclopropylmethyl)amino]ethyl}-6-methoxy-2-(4-methylphenyl)-2,3,4,9-tetrahydro-1H-carbazol-3-amine]	39 ± 6%	60 ± 2%
N[C@H]1[C@H](c2ccc(F)cc2)Cc2[nH]c3ccccc3c2[C@@H]1CCNCC1CC1 [Ip, (2S,3S,4S)-4-{2-[(Cyclopropylmethyl)amino]ethyl}-2-(4-fluorophenyl)-2,3,4,9-tetrahydro-1H-carbazol-3-amine]	7 ± 3%	7 ± 2%
COc1ccc([C@@H]2Cc3[nH]c4ccccc4c3[C@H](CCNCC3CC3)[C@H]2N)cc1 [Id, (2S,3S,4S)-4-{2-[(Cyclopropylmethyl)amino]ethyl}-2-(4-methoxyphenyl)-2,3,4,9-tetrahydro-1H-carbazol-3-amine]	33 ± 5%	40%
N[C@@H]1[C@@H](c2ccc(C(F)(F)F)cc2)Cc2[nH]c3ccccc3c2[C@H]1CCNCC1CC1 [Ie, (2R,3R,4R)-4-{2-[(Cyclopropylmethyl)amino]ethyl}-2-[4-(trifluoromethyl)phenyl]-2,3,4,9-tetrahydro-1H-carbazol-3-amine]	14 ± 5%	13 ± 3%
COc1ccccc1[C@H]1Cc2[nH]c3ccccc3c2[C@@H](CCNCC2CC2)[C@@H]1N [Ik, (2R,3S,4R)-4-{2-[(Cyclopropylmethyl)amino]ethyl}-2-(2-methoxyphenyl)-2,3,4,9-tetrahydro-1H-carbazol-3-amine]	23 ± 3%	30 ± 2%
COc1ccc([C@H]2Cc3[nH]c4ccc(Cl)cc4c3[C@@H](CCNCC3CC3)[C@@H]2N)cc1 [Iah, (2R,3R,4R)-6-Chloro-4-{2-[(cyclopropylmethyl)amino]ethyl}-2-(4-methoxyphenyl)-2,3,4,9-tetrahydro-1H-carbazol-3-amine]	26 ± 12%	16 ± 2%
N[C@@H]1[C@@H](c2ccc(OC(F)(F)F)cc2)Cc2[nH]c3ccccc3c2[C@H]1CCNCC1CC1 [If, (2R,3R,4R)-4-{2-[(Cyclopropylmethyl)amino]ethyl}-2-[4-(trifluoromethoxy)phenyl]-2,3,4,9-tetrahydro-1H-carbazol-3-amine]	11 ± 4%	12 ± 3%
Cc1ccc([C@H]2Cc3[nH]c4ccc(Cl)cc4c3[C@@H](CCNCC3CC3)[C@@H]2N)cc1 [Iag, (2R,3R,4R)-6-Chloro-4-{2-[(cyclopropylmethyl)amino]ethyl}-2-(4-methylphenyl)-2,3,4,9-tetrahydro-1H-carbazol-3-amine]	9 ± 5%	10 ± 6%
Cc1ccc([C@H]2Cc3[nH]c4ccccc4c3[C@@H](CCNC(C)C)[C@@H]2N)cc1 [Iy, (2R,3R,4R)-2-(4-Methylphenyl)-4-{2-[(propan-2-yl)amino]ethyl}-2,3,4,9-tetrahydro-1H-carbazol-3-amine]	8%	4 ± 4%
Cc1ccccc1[C@H]1Cc2[nH]c3ccccc3c2[C@@H](CCNCC2CC2)[C@@H]1N [Im, (2R,3R,4R)-4-{2-[(Cyclopropylmethyl)amino]ethyl}-2-(2-methylphenyl)-2,3,4,9-tetrahydro-1H-carbazol-3-amine]	36 ± 8%	61 ± 7%
CN[C@H]1[C@H](c2ccc(OC)cc2)Cc2[nH]c3ccccc3c2[C@@H]1CCNCC1CC1 [Is, (2S,3S,4S)-4-{2-[(Cyclopropylmethyl)amino]ethyl}-2-(4-methoxyphenyl)-N-methyl-2,3,4,9-tetrahydro-1H-carbazol-3-amine]	1%	6 ± 1%
Cc1ccc([C@H]2Cc3[nH]c4ccc(F)cc4c3[C@@H](CCNCC3CC3)[C@@H]2N)cc1 [Iaj, (2R,3R,4R)-4-{2-[(Cyclopropylmethyl)amino]ethyl}-6-fluoro-2-(4-methylphenyl)-2,3,4,9-tetrahydro-1H-carbazol-3-amine]	7 ± 1%	4 ± 1%
CCNCC[C@@H]1c2c([nH]c3ccccc23)C[C@H](c2ccc(C)cc2)[C@H]1N [Iz, (2R,3R,4R)-4-[2-(Ethylamino)ethyl]-2-(4-methylphenyl)-2,3,4,9-tetrahydro-1H-carbazol-3-amine]	8 ± 4%	8 ± 3%
Cc1ccc([C@H]2Cc3[nH]c4ccccc4c3[C@@H](CCNCC3CC(F)(F)C3)[C@@H]2N)cc1 [Iu, (2R,3R,4R)-4-(2-{[(3,3-Difluorocyclobutyl)methyl]amino}ethyl)-2-(4-methylphenyl)-2,3,4,9-tetrahydro-1H-carbazol-3-amine]	4 ± 3%	6 ± 1%
N[C@@H]1[C@@H](c2cccc(F)c2)Cc2[nH]c3ccccc3c2[C@H]1CCNCC1CC1 [Iq, (2R,3R,4R)-4-{2-[(Cyclopropylmethyl)amino]ethyl}-2-(3-fluorophenyl)-2,3,4,9-tetrahydro-1H-carbazol-3-amine]	18 ± 6%	34 ± 4%
Cc1ccc([C@H]2Cc3[nH]c4ccccc4c3[C@@H](CCNCC3CC3)[C@@H]2N)cc1 [Ib, (2R,3R,4R)-4-{2-[(Cyclopropylmethyl)amino]ethyl}-2-(4-methylphenyl)-2,3,4,9-tetrahydro-1H-carbazol-3-amine]	16%	20 ± 5%
CN[C@@H]1[C@@H](c2ccc(OC)cc2)Cc2[nH]c3ccccc3c2[C@H]1CCNCC1CC1 [Ir, (2R,3R,4R)-4-{2-[(Cyclopropylmethyl)amino]ethyl}-2-(4-methoxyphenyl)-N-methyl-2,3,4,9-tetrahydro-1H-carbazol-3-amine]	11 ± 3%	15%
N[C@@H]1[C@@H](c2ccc(F)cc2)Cc2[nH]c3ccccc3c2[C@H]1CCNCC1CC1 [Io, (2R,3R,4R)-4-{2-[(Cyclopropylmethyl)amino]ethyl}-2-(4-fluorophenyl)-2,3,4,9-tetrahydro-1H-carbazol-3-amine]	16 ± 1%	13 ± 5%
Cc1ccc([C@H]2Cc3[nH]c4ccccc4c3[C@@H](CCNCC(C)C)[C@@H]2N)cc1 [Ix, (2R,3R,4R)-2-(4-Methylphenyl)-4-{2-[(2-methylpropyl)amino]ethyl}-2,3,4,9-tetrahydro-1H-carbazol-3-amine]	0%	0%
Cc1cccc([C@H]2Cc3[nH]c4ccccc4c3[C@@H](CCNCC3CC3)[C@@H]2N)c1 [Il, (2R,3R,4R)-4-{2-[(Cyclopropylmethyl)amino]ethyl}-2-(3-methylphenyl)-2,3,4,9-tetrahydro-1H-carbazol-3-amine]	19 ± 7%	32 ± 4%
